In the supplement of paper PMC10307832:

Assays:
Test in all cases: relative viability (nuclei count vs DMSO), 5 days (fraction); higher = more cells survive
KN-93 + Lapatinib = compound: CN(C/C=C/C1=CC=C(C=C1)Cl)CC2=CC=CC=C2N(CCO)S(=O)(=O)C3=CC=C(C=C3)OC [KN-93] + CS(=O)(=O)CCNCc1ccc(-c2ccc3ncnc(Nc4ccc(OCc5cccc(F)c5)c(Cl)c4)c3c2)o1 [Lapatinib] (partner 2 µM)
Summary of the method: (§1)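 Values are medians from duplicate plates. Each reflects relative viability, defined as the nuclei count of treated wells over that of vehicle wells. Lung cancer cell lines in 1536-well plates were pin-tool dosed one day after seeding with one drug alone or with a fixed anchor-drug dose plus five library-drug doses (not always all listed) in √10 steps, then fixed, stained and imaged at 4× after 5 days.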

KN-93 + Bortezomib = compound: CN(C/C=C/C1=CC=C(C=C1)Cl)CC2=CC=CC=C2N(CCO)S(=O)(=O)C3=CC=C(C=C3)OC [KN-93] + CC(C)C[C@H](NC(=O)[C@H](Cc1ccccc1)NC(=O)c1cnccn1)B(O)O [Bortezomib] (partner 0.002 µM)
Summary of the method: as §1

KN-93 + OSI-027 = compound: CN(C/C=C/C1=CC=C(C=C1)Cl)CC2=CC=CC=C2N(CCO)S(=O)(=O)C3=CC=C(C=C3)OC [KN-93] + COc1cccc2cc(-c3nc([C@H]4CC[C@H](C(=O)O)CC4)n4ncnc(N)c34)[nH]c12 [OSI-027] (partner 0.5 µM)
Summary of the method: as §1

KN-93 + Pictilisib = compound: CN(C/C=C/C1=CC=C(C=C1)Cl)CC2=CC=CC=C2N(CCO)S(=O)(=O)C3=CC=C(C=C3)OC [KN-93] + CS(=O)(=O)N1CCN(Cc2cc3nc(-c4cccc5[nH]ncc45)nc(N4CCOCC4)c3s2)CC1 [Pictilisib] (partner 1 µM)
Summary of the method: as §1

KN-93 + Navitoclax = compound: CN(C/C=C/C1=CC=C(C=C1)Cl)CC2=CC=CC=C2N(CCO)S(=O)(=O)C3=CC=C(C=C3)OC [KN-93] + CC1(C)CCC(c2ccc(Cl)cc2)=C(CN2CCN(c3ccc(C(=O)NS(=O)(=O)c4ccc(N[C@H](CCN5CCOCC5)CSc5ccccc5)c(S(=O)(=O)C(F)(F)F)c4)cc3)CC2)C1 [Navitoclax] (partner 0.5 µM)
Summary of the method: as §1

Cell Line	relative viability (KN-93 + Lapatinib; first compound 0.08 µM)	relative viability (KN-93 + Lapatinib; first compound 0.253 µM)	relative viability (KN-93 + Lapatinib; first compound 2.53 µM)	relative viability (KN-93 + Lapatinib; first compound 8 µM)	relative viability (KN-93 + Bortezomib; first compound 0.08 µM)	relative viability (KN-93 + Bortezomib; first compound 0.253 µM)	relative viability (KN-93 + Bortezomib; first compound 2.53 µM)	relative viability (KN-93 + Bortezomib; first compound 8 µM)	relative viability (KN-93 + OSI-027; first compound 0.08 µM)	relative viability (KN-93 + OSI-027; first compound 0.253 µM)	relative viability (KN-93 + OSI-027; first compound 2.53 µM)	relative viability (KN-93 + OSI-027; first compound 8 µM)	relative viability (KN-93 + Pictilisib; first compound 0.08 µM)	relative viability (KN-93 + Pictilisib; first compound 0.253 µM)	relative viability (KN-93 + Pictilisib; first compound 2.53 µM)	relative viability (KN-93 + Pictilisib; first compound 8 µM)	relative viability (KN-93 + Navitoclax; first compound 0.08 µM)	relative viability (KN-93 + Navitoclax; first compound 0.253 µM)	relative viability (KN-93 + Navitoclax; first compound 2.53 µM)	relative viability (KN-93 + Navitoclax; first compound 8 µM)
SK-LU-1	0.644	1.15	0.972	0.56	1.58	1.02	1.59	0.591	0.334	0.328	0.343	0.224	0.5	0.591	0.536	0.357	0.748	0.849	1.3	0.538
LC-2-ad	0.952	1.21	0.997	0.673	0.975	0.998	1.22	0.446	0.874	0.964	0.842	0.707	0.313	0.373	0.368	0.187	0.425	0.414	0.364	0.129
NCI-H1792		0.904	1.67	0.818		0.923	1.04	0.781	0.527	0.651	0.768	0.664		0.233	0.253	0.223		0.705	0.75	0.492
HCC-827	0.218	0.204	0.197	0.194	1.01	1.11	0.972	0.872	0.729	0.777	0.991	0.565	1.08	0.982	1.03	0.986	1.04	0.986	0.98	0.872
LOU-NH91	0.761	0.575	0.886	0.692	0.534	0.456	0.48	0.392	0.663	0.565	0.827	0.65	0.513	0.422	0.568	0.489	0.621	0.63	0.709	0.545
NCI-H2009	0.899	0.891	0.814	0.418	1.05	0.995	0.84	0.462	0.608	0.629	0.535	0.248	0.841	1.01	0.761	0.345	1.16	1.21	1.23	0.869
BEN		0.968	0.918	0.362		0.895	1.01	0.471	0.323	0.308	0.304	0.304		0.549	0.618	0.381		0.062	0.0593	0.0709
NCI-H1650	0.758	0.754	0.952	0.482	0.218	0.196	0.208	0.203	0.574	0.596	0.496	0.465	0.527	0.537	0.582	0.239	1.24	1.2	1.44	0.951
NCI-H1915	0.963	1.25	1.01	0.908	0.929	1.31	1.1	0.54	0.571	0.718	0.653	0.472	0.967	0.865	0.928	0.806	0.736	0.813	0.823	0.742
NCI-H1755	1.02	1.26	1.04	0.561	0.923	1.07	0.967	0.546	0.832	0.727	0.776	0.559	0.413	0.429	0.475	0.205	0.844	1.03	1.07	0.815
EKVX	0.209	0.133	0.194	0.153	0.81	1.33	1.26	0.389	0.536	0.75	0.743	0.552	0.396	0.329	0.437	0.39	0.824	0.742	1.13	0.305
HCC-44	0.946	0.945	1.28	0.81	0.834	0.801	1.03	0.751	0.547	0.482	0.555	0.391	0.728	0.569	0.503	0.398	0.852	0.892	0.951	0.752
HCC-78	0.881	0.703	1.02	0.21	0.462		0.37	0.531	0.388	0.315	0.387	0.339	0.251	0.185	0.193	0.182	0.699	0.833	0.778	0.375
PC-3 [JPC-3]	0.462	0.382	0.439	0.428	0.724	0.97	0.982	0.579	0.695	0.749	0.771	0.55	0.727	0.708	0.759	0.645	0.75	0.824	0.913	0.64
NCI-H322M	0.605	0.633	0.61	0.566	1.36	1.21	1.29	1.14	0.535	0.577	0.539	0.411	0.496	0.423	0.531	0.51	1.19	1.09	1.2	1.11
NCI-H1355	0.954	0.79	1.05	0.913	1.11	1.11	1.3	0.895	0.405	0.295	0.41	0.246	0.391	0.352	0.389	0.295	0.874	0.722	0.916	0.74

Cell Line	relative viability (KN-93 + Lapatinib; first compound 0.08 µM)	relative viability (KN-93 + Lapatinib; first compound 0.253 µM)	relative viability (KN-93 + Lapatinib; first compound 2.53 µM)	relative viability (KN-93 + Lapatinib; first compound 8 µM)	relative viability (KN-93 + Bortezomib; first compound 0.08 µM)	relative viability (KN-93 + Bortezomib; first compound 0.253 µM)	relative viability (KN-93 + Bortezomib; first compound 2.53 µM)	relative viability (KN-93 + Bortezomib; first compound 8 µM)	relative viability (KN-93 + OSI-027; first compound 0.08 µM)	relative viability (KN-93 + OSI-027; first compound 0.253 µM)	relative viability (KN-93 + OSI-027; first compound 2.53 µM)	relative viability (KN-93 + OSI-027; first compound 8 µM)	relative viability (KN-93 + Pictilisib; first compound 0.08 µM)	relative viability (KN-93 + Pictilisib; first compound 0.253 µM)	relative viability (KN-93 + Pictilisib; first compound 2.53 µM)	relative viability (KN-93 + Pictilisib; first compound 8 µM)	relative viability (KN-93 + Navitoclax; first compound 0.08 µM)	relative viability (KN-93 + Navitoclax; first compound 0.253 µM)	relative viability (KN-93 + Navitoclax; first compound 2.53 µM)	relative viability (KN-93 + Navitoclax; first compound 8 µM)
CAL-12T	0.616	0.574	0.716	0.496	1.02	1.09	0.993	0.803	0.718	0.59	0.657	0.434	0.498	0.367	0.605	0.326	1.2	1.19	1.53	1.23
NCI-H2126	0.806	0.659	0.804	0.702	1.07	1.08	1.19	1.09	0.691	0.557	0.638	0.674	0.482	0.443	0.499	0.468	0.814	0.785	0.929	0.809
RERF-LC-KJ	0.803	0.81	1.01	0.776	1.07	1.2	1.09	0.928	0.557	0.509	0.588	0.353	0.582	0.486	0.598	0.332	0.863	0.954	0.651	0.673
COR-L23	0.846	1.47	0.901	0.508	0.653	1.5	1.21	0.573	0.748	1.02	0.798	0.353	0.796	0.892	0.997	0.414	0.877	1.02	1.37	0.626
NCI-H2405	1.17	1.09	1.06	0.659	1.01	0.978	1.09	0.728	0.62	0.584	0.697	0.606	0.407	0.319	0.446	0.305	0.94	0.833	0.767	0.592
SW 1573	1.31	1.11	1.14	0.919	1.04	1.23	0.973	0.763	0.473	0.689	0.584	0.252		0.446	0.493	0.199	0.97	1.12	1.13	0.598
EPLC-272H	0.925	1.03	0.981	0.774	0.863	1.39	0.982	0.752	0.218	0.295	0.297	0.219	0.338	0.365	0.294	0.276	0.945	1.27	1.18	0.849
HCC-366		1.24	1.7	0.83		1.48	1.57	0.955	0.758	0.696	0.894	0.235	0.117	0.0961	0.134	0.107		1.35	1.1	0.907
NCI-H838	0.903	0.78	1.12	0.746	0.735	0.919	1.16	0.796	0.443	0.328	0.445	0.41	0.556	0.378	0.391	0.362	1.04	1.06	1.31	0.946
LU99A	1.16	1.21	0.797	0.89	1.08	1.28	1.33	0.93	0.327	0.273	0.27	0.275	0.302	0.366	0.32	0.308	0.86	0.787	0.763	0.609
NCI-H2085	0.816	0.695	0.803	0.541	0.909	1.12	1.16	0.663	0.733	0.639	0.806	0.597	0.438	0.452	0.518	0.414	1.04	1.21	1.23	0.867
HCC-15	0.625	1.01	1.02	0.685	0.838	1.27	1.17	0.634	0.558	0.722	0.636	0.527	0.547	0.866	0.861	0.524	0.539	0.718	0.794	0.579
NCI-H1666	0.747	0.638	0.679	0.532	0.753	0.669	0.945	0.607	0.882	0.834	0.993	0.857	0.56	0.388	0.489	0.527	0.863	0.799	0.982	0.863
EMC-BAC-2	0.852	0.956	0.943	0.625	0.908	1.12	1.12	0.58	0.373	0.355	0.389	0.337	0.477	0.608	0.542	0.433	0.845	1.32	1.37	1.05
NCI-H1975	0.656	1.05	0.976	0.579	0.334	0.38	0.33	0.249	0.674	0.731	0.677	0.417	0.281	0.267	0.28	0.25	0.797	1.36	1.26	0.756
